Read-outs that look alike come from different tables or passages of the source.

Test [1] concerns the target EGFR wildtype (Homo sapiens, UniProt P00533). The test is described as follows: Biochemical EGFR kinase assay (Lance Ultra TR-FRET), wildtype. In a few lines:
(§1)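 Enzyme reactions lasted 1 hour at room temperature with test compounds between 0.003 and 10 μM, followed by 10 mM EDTA quench.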

Test [2] addresses EGFR L858R/T790M/C797S (Homo sapiens, UniProt P00533, C797S/L858R/T790M). The test is described as follows: Biochemical EGFR kinase assay (Lance Ultra TR-FRET), triple mutant L858R/T790M/C797S. In a few lines:
as §1

Test [3] addresses EGFR del19/T790M/C797S (Homo sapiens, UniProt P00533, C797S/DEL746-750/T790M). The test can be described thus: Biochemical EGFR kinase assay (Lance Ultra TR-FRET), triple mutant del19/T790M/C797S. In a few lines:
as §1

The target of test [4] is EGFR L858R/C797S (Homo sapiens, UniProt P00533, C797S/L858R). The test is described as follows: Biochemical EGFR kinase assay (Lance Ultra TR-FRET), double mutant L858R/C797S. In a few lines:
as §1

Test [5] concerns the target EGFR del19/C797S (Homo sapiens, UniProt P00533, C797S/DEL746-750). The test is described as follows: Biochemical EGFR kinase assay (Lance Ultra TR-FRET), double mutant del19/C797S. Summed up: as §1
The mark [6] stands for this setting: Km ATP, read-out: IC50 WT (nM) Km ATP.
The mark [7] stands for this setting: Km ATP, read-out: IC50 L858R/T790M/C797S (nM) Km ATP.
The mark [8] stands for this setting: Km ATP, read-out: IC50 del19/T790M/C797S (nM) Km ATP.
Setting [9] is: Km ATP, read-out: IC50 L858R/C797S (nM) Km ATP.
The mark [10] stands for this setting: Km ATP, read-out: IC50 del19/C797S (nM) Km ATP.
The mark [11] stands for this setting: ATP at Km, read-out: IC50 WT, Km ATP.
Where [12] appears, read: ATP at Km, read-out: IC50 L858R/T790M/C797S, Km ATP.
The mark [13] stands for this setting: ATP at Km, read-out: IC50 del19/T790M/C797S, Km ATP.
Setting [14] is: ATP at Km, read-out: IC50 L858R/C797S, Km ATP.
[15] abbreviates: ATP at Km, read-out: IC50 del19/C797S, Km ATP.
Setting [16] is: IC50 L858R/T790M/C797S, 100 μM ATP.
Where [17] appears, read: IC50 del19/T790M/C797S, 100 μM ATP.

Sequence of EGFR L858R/T790M/C797S (P00533 25-1210 T790M/C797S/L858R): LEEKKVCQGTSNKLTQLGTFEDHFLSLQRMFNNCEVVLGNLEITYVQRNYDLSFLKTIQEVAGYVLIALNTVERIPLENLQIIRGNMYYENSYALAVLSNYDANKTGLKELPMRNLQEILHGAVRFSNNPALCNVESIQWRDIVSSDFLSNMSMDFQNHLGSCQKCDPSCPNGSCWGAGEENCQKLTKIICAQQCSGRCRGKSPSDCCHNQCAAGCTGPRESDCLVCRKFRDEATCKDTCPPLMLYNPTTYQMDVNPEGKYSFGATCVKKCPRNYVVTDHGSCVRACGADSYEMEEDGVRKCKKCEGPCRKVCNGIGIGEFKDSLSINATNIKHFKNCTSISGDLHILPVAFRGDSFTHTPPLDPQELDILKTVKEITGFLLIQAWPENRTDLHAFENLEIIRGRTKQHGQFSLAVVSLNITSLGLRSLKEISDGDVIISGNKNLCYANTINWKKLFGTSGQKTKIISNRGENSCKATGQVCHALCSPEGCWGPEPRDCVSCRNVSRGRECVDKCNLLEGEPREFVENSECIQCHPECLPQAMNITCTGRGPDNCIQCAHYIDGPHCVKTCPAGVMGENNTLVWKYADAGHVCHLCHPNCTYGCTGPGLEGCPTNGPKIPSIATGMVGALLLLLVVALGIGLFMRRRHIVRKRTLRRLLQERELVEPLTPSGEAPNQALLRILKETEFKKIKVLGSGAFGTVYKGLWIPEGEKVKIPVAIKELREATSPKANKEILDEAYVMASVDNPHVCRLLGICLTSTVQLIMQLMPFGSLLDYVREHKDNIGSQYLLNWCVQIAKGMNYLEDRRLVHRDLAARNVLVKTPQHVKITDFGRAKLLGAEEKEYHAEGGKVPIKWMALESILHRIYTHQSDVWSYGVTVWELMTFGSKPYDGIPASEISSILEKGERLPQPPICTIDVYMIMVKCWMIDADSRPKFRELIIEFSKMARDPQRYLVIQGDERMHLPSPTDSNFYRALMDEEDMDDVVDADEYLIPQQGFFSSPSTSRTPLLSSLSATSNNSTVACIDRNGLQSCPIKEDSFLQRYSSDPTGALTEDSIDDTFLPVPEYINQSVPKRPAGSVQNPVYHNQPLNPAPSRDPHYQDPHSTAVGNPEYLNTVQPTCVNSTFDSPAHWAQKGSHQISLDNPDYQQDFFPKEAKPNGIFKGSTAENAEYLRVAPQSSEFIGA
Sequence of EGFR L858R/C797S (P00533 25-1210 C797S/L858R): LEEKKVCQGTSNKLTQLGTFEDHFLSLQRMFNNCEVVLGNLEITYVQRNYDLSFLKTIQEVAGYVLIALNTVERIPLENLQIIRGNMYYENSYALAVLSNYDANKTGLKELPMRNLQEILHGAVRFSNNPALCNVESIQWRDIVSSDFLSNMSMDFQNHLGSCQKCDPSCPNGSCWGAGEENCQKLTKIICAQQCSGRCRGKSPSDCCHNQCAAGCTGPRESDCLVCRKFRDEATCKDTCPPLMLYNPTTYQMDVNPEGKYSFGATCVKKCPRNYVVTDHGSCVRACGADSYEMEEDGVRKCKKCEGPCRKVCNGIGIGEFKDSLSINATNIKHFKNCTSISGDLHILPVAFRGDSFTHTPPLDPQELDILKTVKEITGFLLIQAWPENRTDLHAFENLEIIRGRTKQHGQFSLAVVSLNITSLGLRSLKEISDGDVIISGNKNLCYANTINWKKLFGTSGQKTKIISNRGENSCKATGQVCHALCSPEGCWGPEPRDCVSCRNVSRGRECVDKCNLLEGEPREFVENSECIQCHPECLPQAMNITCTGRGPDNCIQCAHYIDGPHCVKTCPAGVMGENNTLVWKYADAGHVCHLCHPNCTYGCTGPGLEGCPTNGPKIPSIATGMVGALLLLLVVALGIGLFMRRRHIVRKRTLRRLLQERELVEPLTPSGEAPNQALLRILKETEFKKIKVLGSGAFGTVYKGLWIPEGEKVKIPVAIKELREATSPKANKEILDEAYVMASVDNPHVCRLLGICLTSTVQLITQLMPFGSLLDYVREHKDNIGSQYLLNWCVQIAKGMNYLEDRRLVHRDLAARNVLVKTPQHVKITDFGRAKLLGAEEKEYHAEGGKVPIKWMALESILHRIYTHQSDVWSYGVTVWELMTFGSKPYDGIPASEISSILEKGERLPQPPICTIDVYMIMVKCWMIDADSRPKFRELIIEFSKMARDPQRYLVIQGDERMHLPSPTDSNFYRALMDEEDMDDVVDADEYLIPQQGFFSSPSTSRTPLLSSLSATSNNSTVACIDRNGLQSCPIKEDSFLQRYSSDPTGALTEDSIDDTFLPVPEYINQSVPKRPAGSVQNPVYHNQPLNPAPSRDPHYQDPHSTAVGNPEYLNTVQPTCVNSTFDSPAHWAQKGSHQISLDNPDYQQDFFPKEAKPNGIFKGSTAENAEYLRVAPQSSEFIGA
Sequence of EGFR wildtype (P00533 25-1210): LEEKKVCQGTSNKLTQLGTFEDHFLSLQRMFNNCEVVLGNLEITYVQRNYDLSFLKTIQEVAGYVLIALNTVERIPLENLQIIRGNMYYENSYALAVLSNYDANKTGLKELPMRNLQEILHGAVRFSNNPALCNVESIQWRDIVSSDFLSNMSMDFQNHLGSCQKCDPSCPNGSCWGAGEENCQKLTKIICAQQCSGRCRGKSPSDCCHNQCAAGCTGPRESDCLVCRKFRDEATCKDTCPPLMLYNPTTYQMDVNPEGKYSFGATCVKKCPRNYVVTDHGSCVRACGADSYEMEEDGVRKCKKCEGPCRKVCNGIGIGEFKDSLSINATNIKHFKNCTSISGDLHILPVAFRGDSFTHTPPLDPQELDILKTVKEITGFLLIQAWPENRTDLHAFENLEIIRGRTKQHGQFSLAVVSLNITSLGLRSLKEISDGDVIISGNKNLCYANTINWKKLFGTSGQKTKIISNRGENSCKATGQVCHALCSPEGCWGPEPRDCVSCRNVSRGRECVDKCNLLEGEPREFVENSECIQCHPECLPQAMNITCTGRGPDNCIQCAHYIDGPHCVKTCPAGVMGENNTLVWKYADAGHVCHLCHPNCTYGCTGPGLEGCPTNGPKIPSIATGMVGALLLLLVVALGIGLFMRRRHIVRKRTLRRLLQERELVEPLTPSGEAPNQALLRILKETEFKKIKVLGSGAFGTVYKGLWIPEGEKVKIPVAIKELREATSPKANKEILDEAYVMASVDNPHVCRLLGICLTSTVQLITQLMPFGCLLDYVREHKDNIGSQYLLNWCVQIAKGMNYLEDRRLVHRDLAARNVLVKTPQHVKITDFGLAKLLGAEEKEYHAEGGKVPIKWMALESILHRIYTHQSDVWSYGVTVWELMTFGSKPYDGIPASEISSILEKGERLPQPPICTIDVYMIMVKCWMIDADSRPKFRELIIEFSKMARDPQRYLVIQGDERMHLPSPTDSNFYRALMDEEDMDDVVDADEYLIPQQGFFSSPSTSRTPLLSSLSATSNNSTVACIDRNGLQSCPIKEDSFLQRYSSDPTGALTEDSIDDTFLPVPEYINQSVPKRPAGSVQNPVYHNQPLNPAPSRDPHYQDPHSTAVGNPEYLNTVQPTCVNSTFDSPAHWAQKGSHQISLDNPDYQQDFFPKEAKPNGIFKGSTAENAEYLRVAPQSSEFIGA
Sequence of EGFR del19/C797S (P00533 with tags, fused parts or gaps DEL746-750/C797S): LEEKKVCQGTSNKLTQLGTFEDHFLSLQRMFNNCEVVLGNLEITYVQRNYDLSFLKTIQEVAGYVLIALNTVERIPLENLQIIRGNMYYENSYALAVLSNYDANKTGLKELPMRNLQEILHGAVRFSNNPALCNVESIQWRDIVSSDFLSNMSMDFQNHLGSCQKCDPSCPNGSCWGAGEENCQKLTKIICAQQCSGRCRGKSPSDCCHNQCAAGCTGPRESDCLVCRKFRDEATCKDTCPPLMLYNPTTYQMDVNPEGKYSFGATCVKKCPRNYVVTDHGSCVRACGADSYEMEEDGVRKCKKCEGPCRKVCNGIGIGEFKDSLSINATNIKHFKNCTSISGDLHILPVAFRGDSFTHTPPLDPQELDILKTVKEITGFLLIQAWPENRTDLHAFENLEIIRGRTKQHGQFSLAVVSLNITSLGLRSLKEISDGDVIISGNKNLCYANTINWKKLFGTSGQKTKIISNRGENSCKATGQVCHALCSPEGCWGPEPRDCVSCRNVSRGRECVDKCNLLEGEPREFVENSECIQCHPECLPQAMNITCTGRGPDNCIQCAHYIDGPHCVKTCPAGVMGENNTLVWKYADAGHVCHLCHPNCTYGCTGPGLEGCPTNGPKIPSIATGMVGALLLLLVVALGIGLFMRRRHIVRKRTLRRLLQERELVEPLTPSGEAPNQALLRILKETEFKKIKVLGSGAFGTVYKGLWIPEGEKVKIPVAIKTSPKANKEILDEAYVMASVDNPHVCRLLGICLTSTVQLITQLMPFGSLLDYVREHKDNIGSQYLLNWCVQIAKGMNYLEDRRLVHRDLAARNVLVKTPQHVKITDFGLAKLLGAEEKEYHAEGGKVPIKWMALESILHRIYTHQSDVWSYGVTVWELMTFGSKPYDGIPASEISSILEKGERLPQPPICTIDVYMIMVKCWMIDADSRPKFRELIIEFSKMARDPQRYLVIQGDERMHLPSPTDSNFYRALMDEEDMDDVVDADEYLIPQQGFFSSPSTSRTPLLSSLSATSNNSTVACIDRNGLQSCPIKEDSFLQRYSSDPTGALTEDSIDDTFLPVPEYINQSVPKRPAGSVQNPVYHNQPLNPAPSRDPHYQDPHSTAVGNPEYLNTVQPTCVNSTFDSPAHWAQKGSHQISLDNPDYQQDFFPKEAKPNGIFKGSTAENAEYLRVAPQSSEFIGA

As to `CN1CCC(Oc2cnc(-c3cnc(Nc4ccnc(-c5cnn(S(=O)(=O)C6CC6)c5)n4)cc3N[C@H]3CC[C@@H](F)CC3)cn2)CC1` [Example 144, N^2-(2-(1-(Cyclopropylsulfonyl)-1H-pyrazol-4-yl)pyrimidin-4-yl)-N^4-((1s,4s)-4-fluorocyclohexyl)-5-(5-((1-methylpiperidin-4-yl)oxy)pyrazin-2-yl)pyridine-2,4-diamine], the IC50 in test [1] (setting [6]) came out at 26.3 nM; in test [2] (setting [7]), 0.1 nM; in test [3] (setting [8]), 0.3 nM; in test [4] (setting [9]), 1.2 nM; in test [5] (setting [10]), 2.2 nM.

`CN1CCC(Oc2cnc(-c3cnc(Nc4ccnc(-c5cnn(S(=O)(=O)C6CC6)c5)n4)cc3N[C@H]3CC[C@@H](CO)CC3)cn2)CC1` [Example 146, ((1s,4s)-4-((2-((2-(1-(Cyclopropylsulfonyl)-1H-pyrazol-4-yl)pyrimidin-4-yl)amino)-5-(5-((1-methylpiperidin-4-yl)oxy)pyrazin-2-yl)pyridin-4-yl)amino)cyclohexyl)methanol]: the IC50 in test [1] (setting [6]) is 0.8 nM; in test [2] (setting [7]), 0.02 nM; in test [3] (setting [8]), 0.1 nM; in test [4] (setting [9]) it was 0.1 nM; in test [5] (setting [10]) it was 0.3 nM.

For the molecule `CN1CCC(Oc2cnc(-c3cnc(Nc4ccnc(-c5cnn(S(=O)(=O)C6CC6)c5)n4)cc3N[C@H]3CC[C@@H](C(C)(C)O)CC3)cn2)CC1` [Example 147, 2-((1s,4s)-4-((2-((2-(1-(Cyclopropylsulfonyl)-1H-pyrazol-4-yl)pyrimidin-4-yl)amino)-5-(5-((1-methylpiperidin-4-yl)oxy)pyrazin-2-yl)pyridin-4-yl)amino)cyclohexyl)propan-2-ol], the IC50 in test [1] (setting [6]) amounted to 2.3 nM; in test [2] (setting [7]), 0.1 nM; in test [3] (setting [8]) it was 0.3 nM; in test [4] (setting [9]), 0.1 nM; in test [5] (setting [10]), 0.4 nM.

Turning to `C[C@]1(O)CC[C@@H](Nc2cc(Nc3ccnc(-c4cnn(S(=O)(=O)C5CC5)c4)n3)ncc2-c2cnc(OC3CCOCC3)cn2)CC1` [Example 148, (1s,4s)-4-((2-((2-(1-(Cyclopropylsulfonyl)-1H-pyrazol-4-yl)pyrimidin-4-yl)amino)-5-(5-((tetrahydro-2H-pyran-4-yl)oxy)pyrazin-2-yl)pyridin-4-yl)amino)-1-methylcyclohexan-1-ol], the IC50 in test [1] (setting [6]) turned out to be 15.1 nM; in test [2] (setting [7]) it was 0.3 nM; in test [3] (setting [8]), 0.3 nM; in test [4] (setting [9]) it was 1 nM; in test [5] (setting [10]), 2 nM.

With `CC1(O)CCC(Nc2cc(Nc3ccnc(-c4cnn(S(=O)(=O)C5CC5)c4)n3)ncc2-c2cnc(OC3CCOC3)cn2)CC1` (stereo not drawn) [Example 149, (1s,4s)-4-((2-((2-(1-(Cyclopropylsulfonyl)-1H-pyrazol-4-yl)pyrimidin-4-yl)amino)-5-(5-((tetrahydrofuran-3-yl)oxy)pyrazin-2-yl)pyridin-4-yl)amino)-1-methylcyclohexan-1-ol], the IC50 in test [1] (setting [6]) was found to be 11.2 nM; in test [2] (setting [7]), 0.3 nM; in test [3] (setting [8]), 0.4 nM; in test [4] (setting [9]) it was 0.4 nM; in test [5] (setting [10]) it was 1 nM.

With `C[C@]1(O)CC[C@@H](Nc2cc(Nc3ccnc(-c4cnn(S(=O)(=O)C5CC5)c4)n3)ncc2-c2cnc(OC3COC3)cn2)CC1` [Example 150, (1s,4s)-4-((2-((2-(1-(Cyclopropylsulfonyl)-1H-pyrazol-4-yl)pyrimidin-4-yl)amino)-5-(5-(oxetan-3-yloxy)pyrazin-2-yl)pyridin-4-yl)amino)-1-methylcyclohexan-1-ol], the IC50 in test [1] (setting [6]) worked out at 6.2 nM; in test [2] (setting [7]), 0.1 nM; in test [3] (setting [8]) it was 0.2 nM; in test [4] (setting [9]), 0.4 nM; in test [5] (setting [10]), 0.5 nM.

Take `O=S(=O)(C1CC1)n1cc(-c2nccc(Nc3cc(N[C@H]4CC[C@@H](F)CC4)c(-c4cnc(OC5CCOCC5)cn4)cn3)n2)cn1` [Example 151, N^2-(2-(1-(Cyclopropylsulfonyl)-1H-pyrazol-4-yl)pyrimidin-4-yl)-N^4-((1s,4s)-4-fluorocyclohexyl)-5-(5-((tetrahydro-2H-pyran-4-yl)oxy)pyrazin-2-yl)pyridine-2,4-diamine]: the IC50 is 1910 nM in test [1] (setting [11]); 0.1 nM in test [2] (setting [12]); 0.8 nM in test [3] (setting [13]); 17.2 nM in test [4] (setting [14]); 34 nM in test [5] (setting [15]).

With `O=S(=O)(C1CC1)n1cc(-c2nccc(Nc3cc(NC4CCC(F)CC4)c(-c4cnc(OC5CCOC5)cn4)cn3)n2)cn1` (stereo not drawn) [Example 152, N^2-(2-(1-(Cyclopropylsulfonyl)-1H-pyrazol-4-yl)pyrimidin-4-yl)-N^4-((1s,4s)-4-fluorocyclohexyl)-5-(5-((tetrahydrofuran-3-yl)oxy)pyrazin-2-yl)pyridine-2,4-diamine], the IC50 in test [1] (setting [11]) is greater than 10000 nM; in test [2] (setting [12]) it was 0.1 nM; in test [3] (setting [13]), 0.5 nM; in test [4] (setting [14]), 13.1 nM; in test [5] (setting [15]) it was 214 nM.

Turning to `C[C@]1(O)CC[C@@H](Nc2cc(Nc3ccnc(-c4cnn(S(=O)(=O)C5CC5)c4)n3)ncc2-c2cnc(OC3CCN(CCF)CC3)cn2)CC1` [Example 153, (1s,4s)-4-((2-((2-(1-(Cyclopropylsulfonyl)-1H-pyrazol-4-yl)pyrimidin-4-yl)amino)-5-(5-((1-(2-fluoroethyl)piperidin-4-yl)oxy)pyrazin-2-yl)pyridin-4-yl)amino)-1-methylcyclohexan-1-ol], the IC50 in test [1] (setting [11]) worked out at 3.2 nM; in test [2] (setting [12]), 0.1 nM; in test [3] (setting [13]) it was 0.4 nM; in test [4] (setting [14]), 0.2 nM; in test [5] (setting [15]) it was 0.2 nM.

For the molecule `CN1CCC(F)(COc2cnc(-c3cnc(Nc4ccnc(-c5cnn(S(=O)(=O)C6CC6)c5)n4)cc3N[C@H]3CC[C@@](C)(O)CC3)cn2)CC1` [Example 154, (1s,4s)-4-((2-((2-(1-(Cyclopropylsulfonyl)-1H-pyrazol-4-yl)pyrimidin-4-yl)amino)-5-(5-((4-fluoro-1-methylpiperidin-4-yl)methoxy)pyrazin-2-yl)pyridin-4-yl)amino)-1-methylcyclohexan-1-ol], the IC50 in test [1] (setting [11]) is 2.7 nM; in test [2] (setting [12]), 0.1 nM; in test [3] (setting [13]), 0.2 nM; in test [4] (setting [14]), 0.2 nM; in test [5] (setting [15]), 0.3 nM.

For the molecule `CS(=O)(=O)c1ccc(-c2cnc(Nc3ccnc(-c4cnn(S(=O)(=O)C5CC5)c4)n3)cc2N[C@H]2CC[C@@](C)(O)CC2)nc1` [Example 156, (1s,4s)-4-((6′-((2-(1-(Cyclopropylsulfonyl)-1H-pyrazol-4-yl)pyrimidin-4-yl)amino)-5-(methylsulfonyl)-[2,3′-bipyridin]-4′-yl)amino)-1-methylcyclohexan-1-ol], the IC50 in test [1] (IC50 WT, 100 μM ATP) is greater than 10000 nM; in test [2] (setting [12]) it was 0.1 nM; in test [2] (setting [16]), 0.2 nM; in test [3] (setting [13]) it was 0.1 nM; in test [3] (setting [17]), 0.2 nM; in test [4] (setting [14]) it was 0.4 nM. Also, the IC50 worked out at 0.3 nM in test [5] (setting [15]) and 0.3 nM in test [5] (IC50 del19/C797S, 100 μM ATP).

On to `CS(=O)(=O)c1ccc(-c2cnc(Nc3ccnc(-c4cnn(S(=O)(=O)C5CC5)c4)n3)cc2N[C@H]2CC[C@@H](NCCF)CC2)nc1` [Example 157, N^6′-(2-(1-(Cyclopropylsulfonyl)-1H-pyrazol-4-yl)pyrimidin-4-yl)-N^4′-((1s,4s)-4-((2-fluoroethyl)amino)cyclohexyl)-5-(methylsulfonyl)-[2,3′-bipyridine]-4′,6′-diamine], for which the IC50 in test [1] (setting [11]) amounted to 6.9 nM; in test [1] (IC50 WT, 100 μM ATP), 2930 nM; in test [2] (setting [12]) it was 0.1 nM; in test [2] (setting [16]) it was 0.1 nM; in test [3] (setting [13]), 0.1 nM; in test [3] (setting [17]), 0.1 nM. The IC50 came to 0.8 nM in test [4] (setting [14]); 11.2 nM in test [4] (IC50 L858R/C797S, 100 μM ATP); 0.8 nM in test [5] (setting [15]); 0.6 nM in test [5] (IC50 del19/C797S, 100 μM ATP).

On to `CS(=O)(=O)c1ccc(-c2cnc(Nc3ccnc(-c4cnn(S(=O)(=O)C5CC5)c4)n3)cc2N[C@H]2CC[C@@H](CO)CC2)nc1` [Example 158, ((1s,4s)-4-((6′-((2-(1-(Cyclopropylsulfonyl)-1H-pyrazol-4-yl)pyrimidin-4-yl)amino)-5-(methylsulfonyl)-[2,3′-bipyridin]-4′-yl)amino)cyclohexyl)methanol], for which the IC50 came out at 541 nM in test [1] (IC50 WT, 100 μM ATP); 0.4 nM in test [2] (setting [16]); 0.3 nM in test [3] (setting [17]); 2.4 nM in test [4] (IC50 L858R/C797S, 100 μM ATP); 0.4 nM in test [5] (IC50 del19/C797S, 100 μM ATP).

As for `CN(C)C[C@H]1CC[C@@H](Nc2cc(Nc3ccnc(-c4cnn(S(=O)(=O)C5CC5)c4)n3)ncc2-c2ccc(S(C)(=O)=O)cn2)CC1` [Example 159, N^6′-(2-(1-(Cyclopropylsulfonyl)-1H-pyrazol-4-yl)pyrimidin-4-yl)-N^4′-((1s,4s)-4-((dimethylamino)methyl)cyclohexyl)-5-(methylsulfonyl)-[2,3′-bipyridine]-4′,6′-diamine], the IC50 stood at 323 nM in test [1] (IC50 WT, 100 μM ATP); 0.1 nM in test [2] (setting [16]); 0.1 nM in test [3] (setting [17]); 1.2 nM in test [4] (IC50 L858R/C797S, 100 μM ATP); 0.2 nM in test [5] (IC50 del19/C797S, 100 μM ATP).
